Results as given in the NIST ThermoML archive (doi:10.1016/j.jct.2006.09.008).

Assay: molar heat capacity at constant pressure; mn = molality of the nth substance listed, in mol/kg
Details: 350 kPa, Liquid

O=[N+]([O-])[O-].O=[N+]([O-])[O-].[Sr+2] [strontium nitrate] + O
molar heat capacity at constant pressure [J/K/mol]
Details | m1 = 0.0499 | m1 = 0.1006 | m1 = 0.2005 | m1 = 0.4995 | m1 = 0.7992 | m1 = 0.9995 | m1 = 1.502 | m1 = 2.003 | m1 = 3.001
278.15 K | 75.4 | 75.15 | 74.75 | 74.1 | 73.96 | 74.06 | 74.66 | 75.65 | 77.88
283.15 K | 75.27 | 75.05 | 74.7 | 74.14 | 74.04 | 74.14 | 74.76 | 75.76 | 77.98
288.15 K | 75.18 | 74.99 | 74.68 | 74.19 | 74.11 | 74.22 | 74.84 | 75.84 | 78.06
293.15 K | 75.13 | 74.95 | 74.67 | 74.24 | 74.18 | 74.3 | 74.92 | 75.92 | 78.12
298.15 K | 75.1 | 74.94 | 74.68 | 74.29 | 74.25 | 74.37 | 74.99 | 75.99 | 78.17
303.15 K | 75.08 | 74.93 | 74.7 | 74.34 | 74.31 | 74.43 | 75.05 | 76.04 | 78.21
308.15 K | 75.08 | 74.94 | 74.72 | 74.39 | 74.37 | 74.49 | 75.1 | 76.09 | 78.24
313.15 K | 75.09 | 74.95 | 74.75 | 74.44 | 74.42 | 74.55 | 75.15 | 76.13 | 78.27
318.15 K | 75.11 | 74.98 | 74.79 | 74.49 | 74.48 | 74.6 | 75.2 | 76.17 | 78.29
323.15 K | 75.14 | 75.01 | 74.83 | 74.55 | 74.54 | 74.66 | 75.25 | 76.2 | 78.31
328.15 K | 75.17 | 75.05 | 74.87 | 74.6 | 74.59 | 74.71 | 75.29 | 76.24 | 78.32
333.15 K | 75.21 | 75.1 | 74.92 | 74.66 | 74.65 | 74.76 | 75.33 | 76.27 | 78.34
